From patent US20080248012A1, “Erythrocyte Function Modifying Substance” (KEIO UNIVERSITY, priority 2004, published 2008) come the findings set out here.

“Also recorded” adds a separate entry of the source.

This test has as its system human erythrocytes. The test is described as follows: ATP release from erythrocytes at adjusted oxygen / CO2 partial pressure, luciferin assay. The note with it: for ATP release from erythrocytes in relation to oxygen partial pressure: PO2 0-150 mmHg, 37° C., 5 min, bezafibrate 10^−4 mol/L (30 min), 100% CO gas 1 min, NO 0.5 equivalents to hemoglobin; for ATP release at various CO2 partial pressures: PCO2 0 to 80 mmHg, 5 minutes. Type of test: cell-based. Here is the method:
Human peripheral blood sample (20 ml) was taken, heparinized and centrifuged at 2000 rpm for 7 minutes. The erythrocyte pellet was collected and washed. Then, an erythrocyte suspension (1×10^7 cells/ml) was prepared with Krebs buffer. A tightly sealed cuvette containing 1.8 ml of Krebs buffer in which oxygen concentration is adjusted at a desired level within a range of 0-150 mmHg was incubated at 37° C. A 200 μl aliquot of the erythrocyte suspension was injected into the tightly sealed cuvette with a microsyringe. After 5 minutes, the cuvette was placed in ice at 4° C. to terminate the reaction. A 200 μd sample was taken while it was still 4° C., and centrifuged. The ATP in the resultant supernatant was quantitatively determined by luciferin assay.
In this example, the effects of carbon monoxide-saturated erythrocytes (CO-Hb) and NO treated erythrocytes (αNO-Hb) on ATP release were examined. The method was as described in Example 1 above. In order to examine the effect of NO, an experiment was conducted using erythrocytes prepared as described below. Briefly, collected erythrocytes were completely deoxygenated by feeding argon gas. Then, NO-glutathione was added thereto so that the concentration of this substance to the concentration of Hb was 1:2. Several minutes after the addition, the erythrocytes were centrifuged and recovered. The hemoglobin contained in the above erythrocytes is expressed as “αNO-Hb”.
Briefly, adenosine was added to the extracellular fluid of erythrocytes for 5 minutes. To a tightly sealed cuvette containing Krebs buffer adjusted to have a desired oxygen partial pressure within a range of 0-150 mmHg, the erythrocyte suspension was injected and the reaction was terminated 1 minute thereafter.
The method used was according to the method in Example 1. The amounts of ATP release when erythrocytes were exposed to various CO2 partial pressures (PCO2) from 0 to 80 mmHg for 5 minutes were measured.

On to `O=S(=O)(O)c1cc(N=C=S)ccc1C=Cc1ccc(N=C=S)cc1S(=O)(=O)O` [DIDS, 4,4′-diisothiocyanate-stilbene-2,2′-disulfonic acid], for which the “ATP release increase due to low oxygen” value (10^−4 mol/L DIDS, oxygen partial pressures of 0-140 mmHg) is “inhibits ATP release increase due to low oxygen”. Further, the “amount of ATP release, DIDS addition vs no addition” value (CO(+) erythrocytes, presence/absence of adenosine) is “no difference”. Also, the “ATP release increase due to low oxygen, concentration-dependent effect” value (CO-untreated erythrocytes, Anoxia 0 mmHg vs Normoxia) is given as “inhibited depending on the concentration of DIDS”.

Turning to `[N]=O` [NO, nitric oxide], the “ATP release from erythrocytes in relation to oxygen partial pressure” value (from here on “ATP release from erythrocytes”) is listed as “released ATP constantly regardless of the oxygen concentration”.

Consider `Nc1ncnc2c1ncn2[C@@H]1O[C@H](CO)[C@@H](O)[C@H]1O` [adenosine], for which the “enhancement of ATP release under normal oxygen concentration” value (1 μmol/L adenosine in extracellular fluid 5 min) was “enhanced almost two times”. The “enhancement of ATP release under no oxygen or low oxygen” value (1 μmol/L adenosine in extracellular fluid 5 min, then no/low oxygen 1 minute) is recorded as “enhanced almost two times; also recorded: increases ATP release about two times; also recorded: enhanced about two times”. In addition, the “ATP release enhancement, adenosine combined with carbon dioxide” value (Normoxia, raised PCO2, in the presence of adenosine) is “synergetic high effect”.

For the compound `[C-]#[O+]` [CO, carbon monoxide], the “ATP release from erythrocytes” value is on record as “this ability was completely eliminated”. For the setting “listed as carbon monoxide”, the “ATP release from erythrocytes” value is recorded as “released little ATP regardless of the oxygen partial pressure”.

`N[C@@H](CCC(=O)N[C@@H](CSN=O)C(=O)NCC(=O)O)C(=O)O` [NO derivative, NO-glutathione]: the “ATP release from erythrocytes” value is on record as “released ATP constantly regardless of the oxygen partial pressure”.

In the case of `O=C=O` [carbon dioxide], the “ATP release at various CO2 partial pressures” value runs as follows: (Anoxia (no oxygen state)) “not affected by PCO2”; (Normoxia) “increased at 60-80 mmHg”.
